Assay results: ChEMBL document CHEMBL1201861, “Genomics of Drug Sensitity in Cancer screening data, Wellcome Trust Sanger Institute”

Tests used:
RVH-421 = assay: cells; format: functional, cell-based; conditions: Homo sapiens
Description: SANGER: Inhibition of human RVH-421 cell growth in a cell viability assay.

HT1197 = assay: cells; format: functional, cell-based, HT-1197; conditions: Homo sapiens
Description: SANGER: Inhibition of human HT-1197 cell growth in a cell viability assay.

CAL-39 = assay: cells; format: functional, cell-based; conditions: Homo sapiens;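 further: cell viability assay measuring growth inhibition of CAL-39 cells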
Description: SANGER: Inhibition of human CAL-39 cell growth in a cell viability assay.

NCI-H1522 = assay: cells; format: functional, cell-based, Homo sapiens; conditions: Homo sapiens, NCI-H1522;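 further: growth inhibition of NCI-H1522 cells, read out with a cell viability assay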
Description: SANGER: Inhibition of human NCI-H1522 cell growth in a cell viability assay.

NCI-H322M = assay: cells; format: functional, cell-based, Homo sapiens; conditions: Homo sapiens, NCI-H322M;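 further: cell viability assay measuring inhibition of growth of human NCI-H322M cells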
Description: SANGER: Inhibition of human NCI-H322M cell growth in a cell viability assay.

DK-MG = assay: cells; format: functional, cell-based; conditions: Homo sapiens;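 further: growth inhibition of DK-MG cells, read out with a cell viability assay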
Description: SANGER: Inhibition of human DK-MG cell growth in a cell viability assay.

TE-441-T = assay: cells; format: functional, cell-based, Homo sapiens; conditions: Homo sapiens, TE-441-T
Description: SANGER: Inhibition of human TE-441-T cell growth in a cell viability assay.

EC-GI-10 = assay: cells; format: functional, cell-based, Homo sapiens; conditions: Homo sapiens, EC-GI-10
Description: SANGER: Inhibition of human EC-GI-10 cell growth in a cell viability assay.

LP-1 = assay: cells; format: functional, cell-based, Homo sapiens; conditions: Homo sapiens, LP-1;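 further: growth inhibition of human LP-1 cells, with the read-out taken from a cell viability assay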
Description: SANGER: Inhibition of human LP-1 cell growth in a cell viability assay.

CaR-1 = assay: cells; format: functional, cell-based; conditions: Homo sapiens;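 further: growth inhibition of human CaR-1 cancer cells, read out with a cell viability assay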
Description: SANGER: Inhibition of human CaR-1 cell growth in a cell viability assay.

SNU-449 = assay: cells; format: functional, cell-based; conditions: Homo sapiens
Description: SANGER: Inhibition of human SNU-449 cell growth in a cell viability assay.

COR-L23 = assay: cells; format: functional, cell-based; conditions: Homo sapiens;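 further: cell viability assay measuring how strongly compounds suppress growth of COR-L23 cells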
Description: SANGER: Inhibition of human COR-L23 cell growth in a cell viability assay.

SCC-9 = assay: cells; format: functional, cell-based; conditions: Homo sapiens;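 further: Read-out is a cell viability assay, with values giving inhibition of cell growth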
Description: SANGER: Inhibition of human SCC-9 cell growth in a cell viability assay.

C-33-A = assay: cells; format: functional, cell-based; conditions: Homo sapiens;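 further: cell viability assay measuring growth inhibition of C-33-A cells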
Description: SANGER: Inhibition of human C-33-A cell growth in a cell viability assay.

EB2 = assay: cells; format: functional, cell-based, Homo sapiens; conditions: Homo sapiens, EB2;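 further: growth inhibition of EB2 cells, read out with a cell viability assay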
Description: SANGER: Inhibition of human EB2 cell growth in a cell viability assay.

SNU-423 = assay: cells; format: functional, cell-based; conditions: Homo sapiens
Description: SANGER: Inhibition of human SNU-423 cell growth in a cell viability assay.

A-375 = assay: cells; format: functional, cell-based; conditions: Homo sapiens;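 further: growth inhibition of A375 cells, read out with a cell viability assay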
Description: SANGER: Inhibition of human A375 cell growth in a cell viability assay.

HOS = assay: cells; format: functional, cell-based; conditions: Homo sapiens;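 further: growth inhibition of human HOS cells, read out with a cell viability assay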
Description: SANGER: Inhibition of human HOS cell growth in a cell viability assay.

NCI-H2081 = assay: cells; format: functional, cell-based, Homo sapiens; conditions: Homo sapiens, NCI-H2081;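 further: growth inhibition of human NCI-H2081 cells, read out with a cell viability assay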
Description: SANGER: Inhibition of human NCI-H2081 cell growth in a cell viability assay.

CHL-1 = assay: cells; format: functional, cell-based; conditions: Homo sapiens;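 further: cell growth inhibition, read out with a cell viability assay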
Description: SANGER: Inhibition of human CHL-1 cell growth in a cell viability assay.

NCCIT = assay: SANGER: Inhibition of human NCCIT cell growth in a cell viability assay.; format: functional, cell-based; conditions: Homo sapiens, NCCIT
PC-14 = assay: cells; format: functional, cell-based; conditions: Homo sapiens;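 further: cell viability assay measuring inhibition of PC-14 cell growth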
Description: SANGER: Inhibition of human PC-14 cell growth in a cell viability assay.

P12-Ichikawa = assay: cells; format: functional, cell-based; conditions: Homo sapiens
SNU-16 = assay: cells; format: functional, cell-based, Homo sapiens; conditions: Homo sapiens, SNU-16;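 further: growth inhibition of human SNU-16 cells, determined with a cell viability readout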
Description: SANGER: Inhibition of human NCI-SNU-16 cell growth in a cell viability assay.

SCC-4 = assay: cells; format: functional, cell-based; conditions: Homo sapiens;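 further: growth inhibition of human SCC-4 cells, read out as cell viability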
Description: SANGER: Inhibition of human SCC-4 cell growth in a cell viability assay.

A-431 = assay: cells; format: functional, cell-based; conditions: Homo sapiens;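 further: growth inhibition of A-431 cells, determined with a cell viability read-out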
Description: SANGER: Inhibition of human A431 cell growth in a cell viability assay.

IST-SL2 = assay: cells; format: functional, cell-based, Homo sapiens; conditions: Homo sapiens, IST-SL2;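 further: growth inhibition of human IST-SL2 cells, read out by a cell viability assay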
Description: SANGER: Inhibition of human IST-SL2 cell growth in a cell viability assay.

EW-24 = assay: cells; format: functional, cell-based, Homo sapiens; conditions: Homo sapiens, EW-24;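 further: human EW-24 cancer cell line, growth inhibition read out via a cell viability assay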
Description: SANGER: Inhibition of human EW-24 cell growth in a cell viability assay.

CAL-27 = assay: cells; format: functional, cell-based; conditions: Homo sapiens;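 further: Viability-based readout, IC50 reflecting inhibition of CAL-27 cell growth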
Description: SANGER: Inhibition of human CAL-27 cell growth in a cell viability assay.

HEC-1 = assay: cells; format: functional, cell-based; conditions: Homo sapiens;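 further: growth inhibition of the cell line, read out with a cell viability assay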
Description: SANGER: Inhibition of human HEC-1 cell growth in a cell viability assay.

NCI-H727 = assay: cells; format: functional, cell-based; conditions: Homo sapiens;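 further: growth inhibition of human NCI-H727 cells, read out with a cell viability assay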
Description: SANGER: Inhibition of human NCI-H727 cell growth in a cell viability assay.

SW13 = assay: cells; format: functional, cell-based; conditions: Homo sapiens;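 further: IC50 is inhibition of SW13 cell growth, read out with a cell viability assay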
Description: SANGER: Inhibition of human SW13 cell growth in a cell viability assay.

SW948 = assay: cells; format: functional, cell-based; conditions: Homo sapiens;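 further: growth inhibition of SW948 cells, read out with a cell viability assay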
Description: SANGER: Inhibition of human SW948 cell growth in a cell viability assay.

NCI-H64 = assay: cells; format: functional, cell-based, Homo sapiens; conditions: Homo sapiens, NCI-H64;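 further: growth inhibition of NCI-H64 cells, read out with a cell viability assay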
Description: SANGER: Inhibition of human NCI-H64 cell growth in a cell viability assay.

HCC1599 = assay: cells; format: functional, cell-based, Homo sapiens; conditions: Homo sapiens, HCC1599;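 further: growth inhibition of HCC1599 cells, read out in a cell viability assay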
Description: SANGER: Inhibition of human HCC1599 cell growth in a cell viability assay.

L-540 = assay: cells; format: functional, cell-based, Homo sapiens; conditions: Homo sapiens, L-540;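 further: growth inhibition of the human L-540 cell line, read out with a viability assay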
Description: SANGER: Inhibition of human L-540 cell growth in a cell viability assay.

PFSK-1 = assay: cells; format: functional, cell-based; conditions: Homo sapiens;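 further: cell viability assay measuring how strongly compounds suppress growth of human PFSK-1 cells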
Description: SANGER: Inhibition of human PFSK-1 cell growth in a cell viability assay.

8305C = assay: cells; format: functional, cell-based; conditions: Homo sapiens
Description: SANGER: Inhibition of human 8305C cell growth in a cell viability assay.

NCI-H2087 = assay: cells; format: functional, cell-based; conditions: Homo sapiens;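 further: growth inhibition determined with a cell viability readout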
Description: SANGER: Inhibition of human NCI-H2087 cell growth in a cell viability assay.

HuO9 = assay: cells; format: functional, cell-based; conditions: Homo sapiens;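 further: growth inhibition of HuO9 cells, read out with a cell viability assay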
Description: SANGER: Inhibition of human HuO9 cell growth in a cell viability assay.

AU565 = assay: cells; format: functional, cell-based; conditions: Homo sapiens;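 further: cell viability assay measuring growth inhibition of human AU565 cells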
Description: SANGER: Inhibition of human AU565 cell growth in a cell viability assay.

BL-41 = assay: cells; format: functional, cell-based; conditions: Homo sapiens;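 further: growth inhibition of human BL-41 cells, read out with a cell viability assay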
Description: SANGER: Inhibition of human BL-41 cell growth in a cell viability assay.

EB-3 = assay: cells; format: functional, cell-based, Homo sapiens; conditions: Homo sapiens, EB-3;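 further: human EB-3 cells, growth inhibition read out via a cell viability assay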
Description: SANGER: Inhibition of human EB-3 cell growth in a cell viability assay.

BT-20 = assay: cells; format: functional, cell-based; conditions: Homo sapiens;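 further: cell viability assay measuring suppression of growth in human BT-20 cells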
Description: SANGER: Inhibition of human BT-20 cell growth in a cell viability assay.

HCT-15 = assay: cells; format: functional, cell-based; conditions: Homo sapiens;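 further: cell viability readout, IC50 reflecting suppression of HCT-15 cell growth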
Description: SANGER: Inhibition of human HCT-15 cell growth in a cell viability assay.

KYSE-450 = assay: cells; format: functional, cell-based; conditions: Homo sapiens;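 further: cell growth inhibition measured by a viability assay in human KYSE-450 cells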
Description: SANGER: Inhibition of human KYSE-450 cell growth in a cell viability assay.

HCC38 = assay: cells; format: functional, cell-based; conditions: Homo sapiens;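 further: cell viability assay on the human HCC38 cell line, with IC50 marking the concentration that inhibits cell growth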
Description: SANGER: Inhibition of human HCC38 cell growth in a cell viability assay.

SK-MEL-30 = assay: cells; format: functional, cell-based; conditions: Homo sapiens;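 further: growth inhibition of SK-MEL-30 cells, determined with a cell viability assay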
Description: SANGER: Inhibition of human SK-MEL-30 cell growth in a cell viability assay.

KYSE-140 = assay: cells; format: functional, cell-based; conditions: Homo sapiens;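 further: cell viability assay measuring growth inhibition in human KYSE-140 cells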
Description: SANGER: Inhibition of human KYSE-140 cell growth in a cell viability assay.

RERF-LC-MS = assay: cells; format: functional, cell-based; conditions: Homo sapiens;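 further: growth inhibition of human RERF-LC-MS cells, read out by a cell viability assay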
Description: SANGER: Inhibition of human RERF-LC-MS cell growth in a cell viability assay.

KARPAS-422 = assay: cells; format: functional, cell-based, Homo sapiens; conditions: Homo sapiens, KARPAS-422
Description: SANGER: Inhibition of human KARPAS-422 cell growth in a cell viability assay.

GP5d = assay: cells; format: functional, cell-based; conditions: Homo sapiens;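 further: growth inhibition of human GP5d cells, read out with a cell viability assay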
Description: SANGER: Inhibition of human GP5d cell growth in a cell viability assay.

KYSE-70 cell line = assay: cells; format: functional, cell-based; conditions: Homo sapiens;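 further: cell viability assay read-out, with IC50 expressing suppression of KYSE-70 cell growth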
Description: SANGER: Inhibition of human KYSE-70 cell growth in a cell viability assay.

LU-99A = assay: cells; format: functional, cell-based; conditions: Homo sapiens;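 further: growth inhibition of LU-99A cells, read out with a cell viability assay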
Description: SANGER: Inhibition of human LU-99A cell growth in a cell viability assay.

KYSE-520 cell line = assay: cells; format: functional, cell-based; conditions: Homo sapiens;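 further: growth inhibition of human KYSE-520 cells, read out with a viability assay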
Description: SANGER: Inhibition of human KYSE-520 cell growth in a cell viability assay.

SK-MEL-28 = assay: cells; format: functional, cell-based; conditions: Homo sapiens;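 further: growth inhibition of human SK-MEL-28 cells, read out with a cell viability assay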
Description: SANGER: Inhibition of human SK-MEL-28 cell growth in a cell viability assay.

MRK-nu-1 = assay: cells; format: functional, cell-based, Homo sapiens; conditions: Homo sapiens, MRK-nu-1;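 further: cell viability assay measuring growth suppression of human MRK-nu-1 cells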
Description: SANGER: Inhibition of human MRK-nu-1 cell growth in a cell viability assay.

MOLT-13 = assay: cells; format: functional, cell-based; conditions: Homo sapiens
Description: SANGER: Inhibition of human MOLT-13 cell growth in a cell viability assay.

NB17 = assay: cells; format: functional, cell-based, Homo sapiens; conditions: Homo sapiens, NB17
Description: SANGER: Inhibition of human NB17 cell growth in a cell viability assay.

COC(=O)[C@H](CCSC)NC(=O)c1ccc(NC[C@@H](N)CS)cc1-c1ccccc1 showed an IC50 (RVH-421) of over 1020 nM, an IC50 (HT1197) of over 1020 nM and an IC50 (CAL-39) of over 1020 nM. For the same molecule, the IC50 (NCI-H1522) was over 1020 nM, the IC50 (NCI-H322M) was over 1020 nM and the IC50 (DK-MG) was over 1020 nM. The IC50 (TE-441-T) was over 1020 nM, the IC50 (EC-GI-10) was over 1020 nM and the IC50 (LP-1) was over 1020 nM. For the same molecule, the IC50 (CaR-1) was over 1020 nM, the IC50 (SNU-449) was over 1020 nM and the IC50 (COR-L23) was over 1020 nM. It also gave an IC50 (SCC-9) of over 1020 nM, an IC50 (C-33-A) of over 1020 nM and an IC50 (EB2) of over 1020 nM. For the same molecule, the IC50 (SNU-423) was over 1020 nM, the IC50 (A-375) was over 1020 nM and the IC50 (HOS) was over 1020 nM. The IC50 (NCI-H2081) was over 1020 nM, the IC50 (CHL-1) was over 1020 nM and the IC50 (NCCIT) was over 1020 nM. The IC50 (PC-14) was over 1020 nM, the IC50 (P12-Ichikawa) was over 1020 nM and the IC50 (SNU-16) was over 1020 nM. For the same molecule, the IC50 (SCC-4) was over 1020 nM, the IC50 (A-431) was over 1020 nM and the IC50 (IST-SL2) was over 1020 nM. The IC50 (EW-24) was over 1020 nM, the IC50 (CAL-27) was over 1020 nM and the IC50 (HEC-1) was over 1020 nM. It also gave an IC50 (NCI-H727) of over 1020 nM, an IC50 (SW13) of over 1020 nM and an IC50 (SW948) of over 1020 nM. The IC50 (NCI-H64) was over 1020 nM, the IC50 (HCC1599) was over 1020 nM and the IC50 (L-540) was over 1020 nM. It also gave an IC50 (PFSK-1) of over 1020 nM, an IC50 (8305C) of over 1020 nM and an IC50 (NCI-H2087) of over 1020 nM. The IC50 (HuO9) was over 1020 nM, the IC50 (AU565) was over 1020 nM and the IC50 (BL-41) was over 1020 nM. It also gave an IC50 (EB-3) of over 1020 nM, an IC50 (BT-20) of over 1020 nM and an IC50 (HCT-15) of over 1020 nM. It also gave an IC50 (KYSE-450) of over 1020 nM, an IC50 (HCC38) of over 1020 nM and an IC50 (SK-MEL-30) of over 1020 nM. It also gave an IC50 (KYSE-140) of over 1020 nM, an IC50 (RERF-LC-MS) of over 1020 nM and an IC50 (KARPAS-422) of over 1020 nM. It also gave an IC50 (GP5d) of over 1020 nM, an IC50 (KYSE-70 cell line) of over 1020 nM and an IC50 (LU-99A) of over 1020 nM. The IC50 (KYSE-520 cell line) was over 1020 nM, the IC50 (SK-MEL-28) was over 1020 nM and the IC50 (MRK-nu-1) was over 1020 nM.
Work on Cc1ccc(NC(=O)c2ccc(CN3CCN(C)CC3)cc2)cc1Nc1nccc(-c2cccnc2)n1 [IMATINIB] yielded an IC50 (NCI-H1522) of over 2000 nM, an IC50 (NCI-H322M) of over 2000 nM and an IC50 (MOLT-13) of over 2000 nM. It also gave an IC50 (NB17) of over 2000 nM, an IC50 (TE-441-T) of over 2000 nM and an IC50 (EC-GI-10) of over 2000 nM. The IC50 (LP-1) was over 2000 nM, the IC50 (EB2) was over 2000 nM and the IC50 (NCI-H2081) was over 2000 nM. The IC50 (NCCIT) was over 2000 nM, the IC50 (SNU-16) was over 2000 nM and the IC50 (IST-SL2) was over 2000 nM. It also gave an IC50 (EW-24) of over 2000 nM, an IC50 (NCI-H64) of over 2000 nM and an IC50 (HCC1599) of over 2000 nM. The IC50 (L-540) was over 2000 nM, the IC50 (BL-41) was over 2000 nM and the IC50 (EB-3) was over 2000 nM. For the same molecule, the IC50 (KARPAS-422) was over 2000 nM and the IC50 (MRK-nu-1) was over 2000 nM.
With Nc1ccccc1NC(=O)c1ccc(CNC(=O)OCc2cccnc2)cc1 [ENTINOSTAT] the IC50 (NCI-H1522) was 2220 nM, the IC50 (NCI-H322M) was over 5000 nM and the IC50 (MOLT-13) was 338 nM. For the same molecule, the IC50 (NB17) was 544 nM, the IC50 (TE-441-T) was over 5000 nM and the IC50 (EC-GI-10) was over 5000 nM. It also gave an IC50 (LP-1) of 1300 nM, an IC50 (EB2) of over 5000 nM and an IC50 (NCI-H2081) of over 5000 nM. For the same molecule, the IC50 (NCCIT) was 386 nM, the IC50 (SNU-16) was over 5000 nM and the IC50 (IST-SL2) was 2000 nM. The IC50 (EW-24) was over 5000 nM, the IC50 (NCI-H64) was 1280 nM and the IC50 (HCC1599) was 516 nM. It also gave an IC50 (L-540) of 1110 nM, an IC50 (BL-41) of 569 nM and an IC50 (EB-3) of 4000 nM. The IC50 (KARPAS-422) was 1450 nM and the IC50 (MRK-nu-1) was 432 nM.
